Data reported in US20260125362A1, “TARGETED PROTEIN DEGRADATION OF PARP14 FOR USE IN THERAPY” (AbbVie Biotechnology Ltd, priority 2019, published 2026).

Columns and labels:
[1] = target: T1, catalytic domain of human PARP14 (Homo sapiens, UniProt Q460N5); experiment: Enzymatic assay for inhibition of PARP14 (DELFIA, auto-modification with biotin-NAD); format: biochemical; settings: compounds corresponding to group Q
T1 construct: made in house; host or cells: Escherichia coli
T1 sequence (Q460N5 1611-1801): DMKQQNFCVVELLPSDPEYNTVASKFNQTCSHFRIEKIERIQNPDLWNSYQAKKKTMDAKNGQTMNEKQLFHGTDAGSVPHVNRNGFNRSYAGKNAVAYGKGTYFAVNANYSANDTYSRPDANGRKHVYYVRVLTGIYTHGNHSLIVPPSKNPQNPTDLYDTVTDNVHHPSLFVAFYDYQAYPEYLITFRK
Protocol: The catalytic domain of human PARP14 (residues 1611 to 1801, GenBank Accession No. NM_017554) was overexpressed in Escherichia coli cells. An N-teininal His-TEV fusion tag was used to purify the protein from cell lysates. The His-TEV tag was left on the protein for use in the enzymatic assay.
Enzymatic inhibition of PARP14 was measured using a dissociation-enhanced lanthanide fluorescence immunoassay (DELFIA) monitoring the auto-modification of PARP14 by biotinylated nicotinamide adenine dinucleotide (biotin-NAD), 1 μL of a dose response curve of each test compound was spotted in 384-well nickel-coated white microplates (Therno) using a Mosquito (TTP Labtech). Reactions were performed in a 50 p L volume by adding 40 μL of PARP14 in assay buffer (20 mM HEPES pH=8, 100 mM NaCl, 0.1% bovine serum albumin. 2 mM DTT and 0.002% Tween20), incubating with test compound at 25° C. for 30 min, then adding 10 μL of biotin-NA D (Biolog). The final concentrations of PARP14 and biotin-NAD are 50 nM and 3 μM, respectively. Reactions proceeded at 25° C. for 3 h, then were quenched with 5 μL of 10 mM unmodified nicotinamide adenine dinucleotide (Sigma-Aldrich). The quenched reactions were washed 3 times with 100 μL of TBST wash buffer (50 mM Tris-HCl, 150 mnM NaCl and 0.1% Tween20). Next, to the washed and dried plate was added 25 μL of DELFIA Europium-NI streptavidin (Perkin Elmer) diluted in DELFIA assay buffer (Perkin Elmer). After a 30 min incubation at 25° C., the plate was washed 5 times with TBST wash buffer. Finally, 25 μL of DELFIA enhancement solution was added. After a 5 min incubation the plate was read on an Envision platereader equipped with a LANCE/DELFIA top mirror (Perkin Elmer) using excitation of 340 nm and emission of 615 nm to measure the amount of Europium present in each well, informing on the amount of biotin-NAD that was transferred in the automodification reaction. Control wells containing a negative control of 2% DMSO vehicle or a positive control of 100 μM rucaparib were used to calculate the % inhibition as described below:
where ex615cmpd is the emission from the compound treated well, ex615min, is the emission from the rucaparib treated positive control well and ex615max is the emission from the DMSO treated negative control well.
The % inhibition values were plotted as a function of compound concentration and the following 4-parameter fit was applied to derive the IC50 values:
where top and bottom are normally allowed to float, but may be fixed at 100 or 0 respectively in a 3-parameter fit. The Hill Coefficient is normally allowed to float but may also be fixed at 1 in a 3-parameter fit. Y is the % inhibition and X is the compound concentration.

IL-10 production = experiment: Reduction of IL-10 production in IL-4 stimulated M2-like macrophages (ELISA); format: cell-based; settings: IL-4 stimulated M2-like macrophages from human monocytes; 1, 0.1 or 0.01 μM
Protocol: Monocytes were isolated from peripheral human blood and cultured in the presence of M-CSF and the compound of Example 1 (at 1, 0.1 or 0.01 μM) for 72 h. M-CSF differentiates monocytes into M-0 macrophages. Subsequently medium was replaced with fresh medium containing IL-4 and the compound of Example 1 (at 1, 0.1 or 0.01 μM), and cells were incubated for another 48 h. Isolation of primary human monocytes from whole blood: Primary monocytes were isolated from whole blood (iSPECIMEN; 500 mL) collected from healthy donors. Blood was diluted at a 1:1 ratio with EasySep buffer (STEMCELL Technologies 20144) and layered onto lymphoprep (STEMCELL Technologies 07811) in SepMate tubes (STEMCELL Technologies 85450) for PBMC isolation according to the manufacturer's instructions. […] Cells were treated with the compound of Example 1 or DMSO on day 6 after seeding at 1 μmol/L, 0.1 μmol/L, and 0.01 μmol/L. IL-10 determination: Levels of IL-10 in the supernatants of human primary M2 macrophages were determined with the IL-10 ELISA kit (STEMCELL Technologies 02013) according to the manufacturer's instructions. Briefly, supernatants were collected at the indicated time point and depleted of any floating cells before being stored at −80° C. until ready to use. IL-10 concentrations were determined from the kit's IL-10 standard curve and normalized to total cell protein.

PARP14 = target: T2, PARP14 (Homo sapiens, UniProt Q460N5); experiment: PARP14 degradation assay (Western blot) in KYSE270 cells; format: cell-based; settings: 24 h
T2 construct: endogenous in cells; host or cells: KYSE270
Protocol: KYSE270 cells were seeded at a density of […] in 6-well plates and incubated overnight. Once attached, cells were treated with the compounds of Examples 1-4 at increasing concentrations (0.001 μM, 0.01 μM, 0.1 μM, 1 μM, and 10 μM; 0.003 μM, 0.03 μM, 0.3 μM, and 3 μM were also evaluated for the compound of Example 1), or with DMSO for 24 h. Media was gently aspirated and cells washed 3 times with 2 mL of ice cold PBS while on ice. The PBS was completely aspirated and 75 μl freshly prepared lysis buffer (Thermo Fisher 78501) was added to cells before scraping into the buffer. Lysates were collected in microcentrifuge tubes and incubated on ice for 15 minutes. Lysates were centrifuged at 10,000 rpm for 15 min at 4° C. and supernatants collected into fresh microcentrifuge tubes. Protein concentration was measured using a reducing agent compatible with the Pierce BCA Protein Assay Kit (Thermo Fisher 23250). Samples were prepared in loading buffer (LI-COR 928-40004) containing 5% β-mercaptoethanol, and incubated at 95° C. for 5 min. Protein lysates were resolved on 4-12% Tris-Acetate gels in MOPS running buffer with 60 μg of protein per well. Western blot transfers were done with PVDF membranes (LI-COR Immobilon) with 20 volts for 14 minutes. Primary antibodies (PARP14: in house generated mouse antibody (15A6 LotIC), β-actin: D6A8 (8457)) were incubated at 1:1,000 dilution using the odyssey blocking buffer (LI-COR 927-50000) for 2 h at room temperature and detected with secondary antibody (LI-COR 926-68072, 926-32211). Mouse antibody 15A6 Lot1C was generated by immunizing with recombinant human PARP14 catalytic domain protein. After hybridoma fusion, the parental clones were screened for reactivity against PARP14 catalytic domain, which were then subcloned to generate monoclones including 15A6-1. Monoclonal supernatants were tested by Western blotting against THP-1 and THP-1 PARP14 KO cells to confirm reactivity. The PARP14 antibody was produced by culturing the 15A6-1 hybridoma monoclone in 1L of serum free media+2% low IgG FBS. […]

T2 sequence (Q460N5 whole entry): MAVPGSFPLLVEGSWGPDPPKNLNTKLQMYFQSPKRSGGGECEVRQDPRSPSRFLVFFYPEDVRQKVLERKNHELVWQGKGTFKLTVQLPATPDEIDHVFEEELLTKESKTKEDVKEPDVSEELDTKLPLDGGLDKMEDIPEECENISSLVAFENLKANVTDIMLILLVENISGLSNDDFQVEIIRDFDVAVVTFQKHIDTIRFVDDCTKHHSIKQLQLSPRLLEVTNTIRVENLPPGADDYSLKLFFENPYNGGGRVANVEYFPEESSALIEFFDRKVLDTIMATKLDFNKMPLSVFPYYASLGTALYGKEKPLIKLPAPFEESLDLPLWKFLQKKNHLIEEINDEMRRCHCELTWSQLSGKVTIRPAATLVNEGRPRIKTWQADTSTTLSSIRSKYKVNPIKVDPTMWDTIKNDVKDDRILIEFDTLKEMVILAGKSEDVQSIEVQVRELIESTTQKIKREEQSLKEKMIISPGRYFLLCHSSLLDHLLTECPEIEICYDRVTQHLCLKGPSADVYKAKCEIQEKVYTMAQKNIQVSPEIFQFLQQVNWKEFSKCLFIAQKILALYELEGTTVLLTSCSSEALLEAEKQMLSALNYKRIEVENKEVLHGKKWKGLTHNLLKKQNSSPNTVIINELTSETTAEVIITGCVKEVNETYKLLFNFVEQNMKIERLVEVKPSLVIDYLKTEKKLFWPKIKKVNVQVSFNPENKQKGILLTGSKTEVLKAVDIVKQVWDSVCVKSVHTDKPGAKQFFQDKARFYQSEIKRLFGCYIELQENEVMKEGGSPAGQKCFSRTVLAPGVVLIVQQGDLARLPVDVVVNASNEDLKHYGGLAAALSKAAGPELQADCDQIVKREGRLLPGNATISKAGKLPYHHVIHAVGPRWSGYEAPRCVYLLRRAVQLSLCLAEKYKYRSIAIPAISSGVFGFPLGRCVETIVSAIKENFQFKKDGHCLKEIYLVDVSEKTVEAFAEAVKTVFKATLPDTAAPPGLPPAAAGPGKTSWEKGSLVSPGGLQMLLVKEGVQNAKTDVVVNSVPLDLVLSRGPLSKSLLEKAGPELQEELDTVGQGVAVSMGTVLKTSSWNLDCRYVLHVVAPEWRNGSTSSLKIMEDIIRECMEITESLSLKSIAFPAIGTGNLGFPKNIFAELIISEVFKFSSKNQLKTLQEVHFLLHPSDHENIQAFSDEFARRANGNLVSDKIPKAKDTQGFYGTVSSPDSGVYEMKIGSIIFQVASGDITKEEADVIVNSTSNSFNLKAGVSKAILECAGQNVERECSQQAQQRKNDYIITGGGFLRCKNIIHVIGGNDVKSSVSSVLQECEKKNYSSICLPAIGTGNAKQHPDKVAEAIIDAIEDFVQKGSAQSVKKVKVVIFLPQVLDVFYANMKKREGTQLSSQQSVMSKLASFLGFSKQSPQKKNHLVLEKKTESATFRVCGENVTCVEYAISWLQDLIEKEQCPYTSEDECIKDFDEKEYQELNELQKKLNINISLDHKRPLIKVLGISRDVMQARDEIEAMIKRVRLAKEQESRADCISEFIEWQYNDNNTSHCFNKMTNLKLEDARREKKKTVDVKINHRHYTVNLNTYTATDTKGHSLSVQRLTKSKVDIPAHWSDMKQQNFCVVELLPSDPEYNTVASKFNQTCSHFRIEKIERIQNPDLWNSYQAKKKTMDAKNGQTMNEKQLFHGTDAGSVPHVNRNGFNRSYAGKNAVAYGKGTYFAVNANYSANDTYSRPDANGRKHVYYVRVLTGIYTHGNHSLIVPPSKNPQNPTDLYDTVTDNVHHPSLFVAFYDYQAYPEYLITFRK

| Structure (SMILES) | IC50 [1] [nM] | IL-10 production (IL-10 levels in tissue culture supernatant, ELISA) (IL-10 production) | hook effect at higher concentrations (PARP14 degradation) (PARP14) |
| --- | --- | --- | --- |
| O=c1[nH]c(CSC2CCNCC2)nc2cc(NC3CCCC3)cc(F)c12 | < 1000 | – | – |
| O=c1[nH]c(CSC2CCC(O)CC2)nc2cc(OCC3CCCOC3)cc(F)c12 (centres unmarked) | < 1000 | – | – |
| O=c1[nH]c(CS[C@H]2CC[C@H](O)CC2)nc2cc(OCC3CCOCC3)cc(F)c12 | < 1000 | – | – |
| O=c1[nH]c(CS[C@H]2CC[C@@H](O)CC2)nc2cc(OCC3CCOCC3)cc(F)c12 | < 1000 | – | – |
| O=C(CN1CCC(SCc2nc3cc(NC4CCCC4)cc(F)c3c(=O)[nH]2)CC1)NCCCCCCNc1cccc2c1C(=O)N(C1CCC(=O)NC1=O)C2=O.O=C(O)C(F)(F)F (centres unmarked) [Example 1, 2-(4-(((7-(Cyclopentylamino)-5-fluoro-4-oxo-3,4-dihydroquinazolin-2-yl)methyl)thio)piperidin-1-yl)-N-(6-((2-(2,6-dioxopiperidin-3-yl)-1,3-dioxoisoindolin-4-yl)amino)hexyl)acetamide trifluoroacetate] | – | decreased IL-10 production | amelioration of efficacy |
| O=C1CCC(N2C(=O)c3cccc(NCCCCCCCC(=O)N[C@H]4CC[C@H](SCc5nc6cc(OCC7CCOCC7)cc(F)c6c(=O)[nH]5)CC4)c3C2=O)C(=O)N1 (some centres unmarked) [Example 3, 8-((2-(2,6-dioxopiperidin-3-yl)-1,3-dioxoisoindolin-4-yl)amino)-N-((1r,4r)-4-(((5-fluoro-4-oxo-7-((tetrahydro-2H-pyran-4-yl)methoxy)-3,4-dihydroquinazolin-2-yl)methyl)thio)cyclohexyl)octanamide] | – | – | amelioration of efficacy |
| O=C1CCC(N2C(=O)c3cccc(NCCC(=O)N[C@H]4CC[C@H](SCc5nc6cc(OCC7CCOCC7)cc(F)c6c(=O)[nH]5)CC4)c3C2=O)C(=O)N1 (some centres unmarked) [Example 4, 3-((2-(2,6-dioxopiperidin-3-yl)-1,3-dioxoisoindolin-4-yl)amino)-N-((1r,4r)-4-(((5-fluoro-4-oxo-7-((tetrahydro-2H-pyran-4-yl)methoxy)-3,4-dihydroquinazolin-2-yl)methyl)thio)cyclohexyl)propanamide] | – | – | amelioration of efficacy |
